Holding throughout (test): biochemical
Common to all, as to parameters: KINOMEscan scanMAX competition binding, DNA-tagged kinases, qPCR read-out, percent control at 300 nM

Assay [1] has as its target T1, ABL1(M351T)-phosphorylated (Homo sapiens, UniProt P00519, M351T).
T1 construct: phosphorylated
As to conditions: read-out: Percent control / Zanubrutinib.

The target in a further assay is T2, CDC2L5 (Homo sapiens, UniProt Q14004).
T2 construct: gene CDK13
The settings on record: read-out: Percent control / Zanubrutinib.

Another assay concerns the target CDK5 (Homo sapiens, UniProt Q00535). As to conditions: read-out: Percent control / Zanubrutinib.
For another assay, the target named is CDKL5 (Homo sapiens, UniProt O76039). As to conditions: read-out: Percent control / Zanubrutinib.
The next assay has as its target HIPK2 (Homo sapiens, UniProt Q9H2X6). As to conditions: read-out: Percent control / Zanubrutinib.
For another assay, the target named is LRRK2 (Homo sapiens, UniProt Q5S007). The settings on record: read-out: Percent control / Zanubrutinib.
The target of a further assay is T3, MEK4 (Homo sapiens, UniProt P45985).
T3 construct: gene MAP2K4
As to conditions: read-out: Percent control / Zanubrutinib.

For another assay, the target named is PIK3CA(E545A) (Homo sapiens, UniProt P42336, E545A). As to conditions: read-out: Percent control / Zanubrutinib.
The next assay deals with PIM3 (Homo sapiens, UniProt Q86V86). The settings on record: read-out: Percent control / Zanubrutinib.
In another assay the target is T4, S6K1 (Homo sapiens, UniProt P23443).
T4 construct: gene RPS6KB1
The settings on record: read-out: Percent control / Zanubrutinib.

In another assay the target is T5, SIK (Homo sapiens, UniProt P57059).
T5 construct: gene SIK1
The settings on record: read-out: Percent control / Zanubrutinib.

The next assay concerns the target ZAP70 (Homo sapiens, UniProt P43403). The settings on record: read-out: Percent control / Zanubrutinib.
In another assay the target is EGFR(G719C) (Homo sapiens, UniProt P00533, G719C). The settings on record: read-out: Percent control / Tirabrutinib.
In another assay the target is EGFR(G719S) (Homo sapiens, UniProt P00533, G719S). As to conditions: read-out: Percent control / Tirabrutinib.
The next assay has as its target TLK2 (Homo sapiens, UniProt Q86UE8). The settings on record: read-out: Percent control / Tirabrutinib.
For another assay, the target named is T6, YES (Homo sapiens, UniProt P07947).
T6 construct: gene YES1
The settings on record: read-out: Percent control / Tirabrutinib.

Another assay has as its target MARK3 (Homo sapiens, UniProt P27448). The settings on record: read-out: Percent control / Ibrutinib.
The next assay concerns the target MYO3B (Homo sapiens, UniProt Q8WXR4). The settings on record: read-out: Percent control / Ibrutinib.
For assay [2], the target named is T7, ABL1(F317I)-phosphorylated (Homo sapiens, UniProt P00519, F317I).
T7 construct: phosphorylated
The settings on record: read-out: Percent control / Acalabrutinib.

The next assay deals with CAMK2G (Homo sapiens, UniProt Q13555). The settings on record: read-out: Percent control / Acalabrutinib.
For the next assay, the target named is EPHA1 (Homo sapiens, UniProt P21709). The settings on record: read-out: Percent control / Acalabrutinib.
In a further assay the target is HIPK1 (Homo sapiens, UniProt Q86Z02). As to conditions: read-out: Percent control / Acalabrutinib.
For another assay, the target named is TGFBR1 (Homo sapiens, UniProt P36897). As to conditions: read-out: Percent control / Acalabrutinib.

T5 sequence (P57059 whole entry): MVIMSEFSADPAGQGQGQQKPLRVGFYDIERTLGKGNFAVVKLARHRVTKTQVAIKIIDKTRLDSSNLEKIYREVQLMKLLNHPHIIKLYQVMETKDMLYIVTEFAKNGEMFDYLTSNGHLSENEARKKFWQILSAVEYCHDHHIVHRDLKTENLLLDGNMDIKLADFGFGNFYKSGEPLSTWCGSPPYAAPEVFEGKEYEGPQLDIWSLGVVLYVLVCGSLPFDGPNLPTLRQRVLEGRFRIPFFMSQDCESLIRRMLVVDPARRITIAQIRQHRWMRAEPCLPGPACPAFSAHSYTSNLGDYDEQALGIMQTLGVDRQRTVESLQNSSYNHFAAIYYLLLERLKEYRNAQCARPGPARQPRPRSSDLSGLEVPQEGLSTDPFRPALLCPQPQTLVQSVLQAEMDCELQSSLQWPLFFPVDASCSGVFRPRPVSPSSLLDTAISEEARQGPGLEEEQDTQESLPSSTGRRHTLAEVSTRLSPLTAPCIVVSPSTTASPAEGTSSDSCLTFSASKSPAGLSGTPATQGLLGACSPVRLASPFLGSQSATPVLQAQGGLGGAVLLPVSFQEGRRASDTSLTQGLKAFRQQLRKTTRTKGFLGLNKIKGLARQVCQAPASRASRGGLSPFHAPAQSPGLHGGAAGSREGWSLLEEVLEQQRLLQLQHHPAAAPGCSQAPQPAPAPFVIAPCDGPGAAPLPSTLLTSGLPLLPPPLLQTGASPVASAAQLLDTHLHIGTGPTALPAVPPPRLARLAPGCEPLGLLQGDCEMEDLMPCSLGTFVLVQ
Sequence of MARK3 (P27448 whole entry): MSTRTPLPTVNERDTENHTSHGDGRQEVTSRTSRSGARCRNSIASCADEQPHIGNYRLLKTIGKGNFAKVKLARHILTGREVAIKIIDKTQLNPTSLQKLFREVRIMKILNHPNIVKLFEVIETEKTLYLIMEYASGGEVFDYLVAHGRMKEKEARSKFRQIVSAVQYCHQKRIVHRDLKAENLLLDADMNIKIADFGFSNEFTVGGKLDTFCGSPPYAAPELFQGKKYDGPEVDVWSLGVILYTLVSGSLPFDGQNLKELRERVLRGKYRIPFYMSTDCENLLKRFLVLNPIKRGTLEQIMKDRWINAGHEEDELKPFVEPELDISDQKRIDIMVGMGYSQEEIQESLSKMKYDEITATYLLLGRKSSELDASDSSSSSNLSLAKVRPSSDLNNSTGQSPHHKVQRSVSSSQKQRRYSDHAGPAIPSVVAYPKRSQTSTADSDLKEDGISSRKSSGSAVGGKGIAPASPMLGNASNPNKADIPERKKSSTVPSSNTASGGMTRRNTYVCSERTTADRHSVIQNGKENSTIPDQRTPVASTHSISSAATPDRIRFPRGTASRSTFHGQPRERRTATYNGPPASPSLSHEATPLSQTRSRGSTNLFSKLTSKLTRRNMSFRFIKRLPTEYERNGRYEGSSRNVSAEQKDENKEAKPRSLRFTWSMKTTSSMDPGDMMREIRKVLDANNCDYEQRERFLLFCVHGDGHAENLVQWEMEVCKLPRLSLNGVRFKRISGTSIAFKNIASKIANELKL
Sequence of MYO3B (Q8WXR4 whole entry): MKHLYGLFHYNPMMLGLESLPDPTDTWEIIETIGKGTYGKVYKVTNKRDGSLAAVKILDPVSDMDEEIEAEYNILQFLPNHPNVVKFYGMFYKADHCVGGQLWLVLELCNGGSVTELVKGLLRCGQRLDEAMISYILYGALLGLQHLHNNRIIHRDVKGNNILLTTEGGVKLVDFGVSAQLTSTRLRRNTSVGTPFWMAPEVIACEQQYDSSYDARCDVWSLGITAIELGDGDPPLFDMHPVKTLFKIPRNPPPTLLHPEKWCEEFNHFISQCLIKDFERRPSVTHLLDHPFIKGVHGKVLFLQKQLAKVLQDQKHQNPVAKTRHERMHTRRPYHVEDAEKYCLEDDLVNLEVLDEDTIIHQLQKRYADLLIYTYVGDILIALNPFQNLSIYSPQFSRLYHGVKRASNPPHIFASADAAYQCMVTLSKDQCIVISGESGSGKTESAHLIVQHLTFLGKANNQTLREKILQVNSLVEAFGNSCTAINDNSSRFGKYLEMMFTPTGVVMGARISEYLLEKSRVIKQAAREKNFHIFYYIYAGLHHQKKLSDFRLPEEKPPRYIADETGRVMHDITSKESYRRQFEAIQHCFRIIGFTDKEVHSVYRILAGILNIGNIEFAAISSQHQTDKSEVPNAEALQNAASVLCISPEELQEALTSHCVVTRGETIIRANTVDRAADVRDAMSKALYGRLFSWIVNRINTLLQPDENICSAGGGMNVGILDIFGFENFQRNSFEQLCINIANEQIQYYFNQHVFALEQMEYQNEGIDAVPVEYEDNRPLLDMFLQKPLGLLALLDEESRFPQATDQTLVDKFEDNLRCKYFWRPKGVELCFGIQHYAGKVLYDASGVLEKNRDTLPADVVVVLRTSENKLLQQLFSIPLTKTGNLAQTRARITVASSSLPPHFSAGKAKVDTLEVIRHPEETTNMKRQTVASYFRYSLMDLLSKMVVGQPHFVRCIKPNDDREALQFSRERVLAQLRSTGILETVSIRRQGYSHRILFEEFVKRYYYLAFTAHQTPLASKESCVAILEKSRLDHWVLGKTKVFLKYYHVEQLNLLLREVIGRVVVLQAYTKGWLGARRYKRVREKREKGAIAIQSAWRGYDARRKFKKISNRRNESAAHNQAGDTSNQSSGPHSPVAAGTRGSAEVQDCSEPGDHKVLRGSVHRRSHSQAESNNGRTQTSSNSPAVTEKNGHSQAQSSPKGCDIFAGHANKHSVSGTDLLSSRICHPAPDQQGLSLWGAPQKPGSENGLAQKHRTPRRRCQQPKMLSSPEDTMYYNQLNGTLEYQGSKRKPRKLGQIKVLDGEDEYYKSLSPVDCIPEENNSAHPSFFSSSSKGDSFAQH
Sequence of HIPK1 (Q86Z02 whole entry): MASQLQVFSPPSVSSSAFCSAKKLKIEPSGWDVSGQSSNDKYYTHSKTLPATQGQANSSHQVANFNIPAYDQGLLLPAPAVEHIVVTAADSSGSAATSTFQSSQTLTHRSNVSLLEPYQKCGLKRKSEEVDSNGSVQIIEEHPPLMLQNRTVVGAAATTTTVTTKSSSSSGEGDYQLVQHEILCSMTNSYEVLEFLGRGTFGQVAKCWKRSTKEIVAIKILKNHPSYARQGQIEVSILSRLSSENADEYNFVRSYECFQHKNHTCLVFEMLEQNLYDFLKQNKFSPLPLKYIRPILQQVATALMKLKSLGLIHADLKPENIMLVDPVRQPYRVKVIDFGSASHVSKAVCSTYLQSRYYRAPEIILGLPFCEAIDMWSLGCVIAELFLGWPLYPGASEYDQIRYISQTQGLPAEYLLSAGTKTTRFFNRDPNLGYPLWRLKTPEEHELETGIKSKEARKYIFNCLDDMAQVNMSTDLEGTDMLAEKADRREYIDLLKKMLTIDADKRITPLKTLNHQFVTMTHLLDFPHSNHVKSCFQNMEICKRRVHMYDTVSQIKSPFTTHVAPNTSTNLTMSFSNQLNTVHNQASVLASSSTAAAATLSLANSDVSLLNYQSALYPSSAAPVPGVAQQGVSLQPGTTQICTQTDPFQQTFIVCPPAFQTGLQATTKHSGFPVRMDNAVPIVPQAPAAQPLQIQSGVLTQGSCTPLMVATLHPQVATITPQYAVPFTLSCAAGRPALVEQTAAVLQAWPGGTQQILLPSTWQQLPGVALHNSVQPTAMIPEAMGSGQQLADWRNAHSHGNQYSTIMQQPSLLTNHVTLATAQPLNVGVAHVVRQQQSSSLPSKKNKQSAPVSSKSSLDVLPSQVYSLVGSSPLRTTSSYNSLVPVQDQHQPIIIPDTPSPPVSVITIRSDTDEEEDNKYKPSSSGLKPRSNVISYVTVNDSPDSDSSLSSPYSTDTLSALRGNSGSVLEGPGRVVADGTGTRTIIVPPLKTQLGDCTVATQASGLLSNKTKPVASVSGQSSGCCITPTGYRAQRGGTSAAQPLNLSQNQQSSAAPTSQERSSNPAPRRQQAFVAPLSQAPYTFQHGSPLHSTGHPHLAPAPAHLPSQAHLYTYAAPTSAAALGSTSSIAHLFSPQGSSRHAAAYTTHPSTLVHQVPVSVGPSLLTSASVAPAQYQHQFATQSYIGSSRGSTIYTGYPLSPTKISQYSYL
T3 sequence (P45985 whole entry): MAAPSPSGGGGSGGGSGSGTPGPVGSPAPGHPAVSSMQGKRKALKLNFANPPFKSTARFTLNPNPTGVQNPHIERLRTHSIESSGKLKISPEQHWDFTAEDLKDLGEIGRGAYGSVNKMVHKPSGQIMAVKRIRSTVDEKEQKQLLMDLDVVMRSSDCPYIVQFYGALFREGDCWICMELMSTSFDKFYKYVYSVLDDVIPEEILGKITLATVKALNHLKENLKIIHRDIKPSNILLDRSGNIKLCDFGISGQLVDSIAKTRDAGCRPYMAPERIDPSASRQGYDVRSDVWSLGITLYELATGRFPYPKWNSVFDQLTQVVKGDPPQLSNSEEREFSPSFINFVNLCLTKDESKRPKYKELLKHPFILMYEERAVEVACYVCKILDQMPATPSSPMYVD
Sequence of CAMK2G (Q13555 whole entry): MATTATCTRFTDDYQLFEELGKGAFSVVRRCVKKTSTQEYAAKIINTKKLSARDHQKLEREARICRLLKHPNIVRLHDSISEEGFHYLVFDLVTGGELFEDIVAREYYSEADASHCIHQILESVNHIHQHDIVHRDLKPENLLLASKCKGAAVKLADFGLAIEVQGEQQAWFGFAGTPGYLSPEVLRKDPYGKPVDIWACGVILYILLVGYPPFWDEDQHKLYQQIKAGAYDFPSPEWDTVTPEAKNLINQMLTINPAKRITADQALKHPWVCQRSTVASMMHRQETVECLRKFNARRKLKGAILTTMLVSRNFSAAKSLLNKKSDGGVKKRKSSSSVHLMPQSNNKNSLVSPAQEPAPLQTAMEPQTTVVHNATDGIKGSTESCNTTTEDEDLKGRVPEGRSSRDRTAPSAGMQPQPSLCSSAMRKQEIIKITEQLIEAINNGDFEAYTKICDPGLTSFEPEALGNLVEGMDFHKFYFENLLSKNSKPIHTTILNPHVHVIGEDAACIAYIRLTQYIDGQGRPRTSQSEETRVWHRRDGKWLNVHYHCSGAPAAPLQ

On to `C=CC(=O)N1CCC([C@@H]2CCNc3c(C(N)=O)c(-c4ccc(Oc5ccccc5)cc4)nn32)CC1` [Zanubrutinib], for which the remaining binding at 0.3 µM was determined as 83% in assay [1]; 99% on CDC2L5; 98% on CDK5; 100% on CDKL5; 87% on HIPK2; 64% at LRRK2. Further, the remaining binding at 0.3 µM was found to be 93% on MEK4; 59% on PIK3CA(E545A); 84% at PIM3; 88% on S6K1; 100% at SIK; 68% on ZAP70.
With `CC#CC(=O)N1CC[C@@H](n2c(=O)n(-c3ccc(Oc4ccccc4)cc3)c3c(N)ncnc32)C1` [Tirabrutinib], the remaining binding at 0.3 µM on EGFR(G719C) came to 54%; on EGFR(G719S) it was 85%; at TLK2 it was 90%; at YES, 71%.
For `C=CC(=O)N1CCC[C@@H](n2nc(-c3ccc(Oc4ccccc4)cc3)c3c(N)ncnc32)C1` [Ibrutinib], the remaining binding at 0.3 µM at MARK3 stood at 99%; at MYO3B it was 80%.
Turning to `CC#CC(=O)N1CCC[C@H]1c1nc(-c2ccc(C(=O)Nc3ccccn3)cc2)c2c(N)nccn12` [Acalabrutinib], the remaining binding at 0.3 µM in assay [2] worked out at 94%; on CAMK2G, 95%; on EPHA1, 85%; at HIPK1, 85%; at TGFBR1 it was 96%.

Values taken from PMC10004634 (PLOS ONE, 2023).
